# Assay results reported in patent publication US20250171495A1, “MUTLI-TARGETED SERINE PROTEASE INHIBITORS FOR TREATMENT OF CANCER AND VIRAL INFECTION” (Washington University, priority 2023, published 2025).
# “And” between values parts separate entries of the source, which are not always exact repeats. Equal entries are not always repeated.
# Legend:
# Type in all cases: biochemical
# TMPRSS2 = TMPRSS2 (Homo sapiens, UniProt O15393); test: PS-SCL / HyCoSuL substrate specificity screening, TMPRSS2; details: for P2 Position Substrate Activity for TMPRSS2 (percent substrate cleavage/proteolysis): residue fixed at P2 position of substrate library; for P3 Position Various Amino Acids Substrate Activity, TMPRSS2 (percent substrate cleavage/proteolysis) / P3 Position Substrate Activity for TMPRSS2 (percent substrate cleavage/proteolysis): residue fixed at P3 position of substrate library
# HGFA = target: T1, HGFA (Homo sapiens, UniProt Q04756); test: HyCoSuL P4-P2 substrate specificity screening, HGFA; details: for P2 Position Substrate Activity for HGFA (percent substrate cleavage/proteolysis): residue fixed at P2 position; for P3 Position Various Amino Acids Substrate Activity, HGFA (percent substrate cleavage/proteolysis): residue fixed at P3 position of substrate library; for P4 Position Various Amino Acids Substrate Activity, HGFA (percent substrate proteolysis/cleavage): residue fixed at P4 position of substrate library; for P3 Position Substrate Activity for HGFA (percent substrate cleavage/proteolysis): residue fixed at P3 position
# T1 sequence (Q04756 373-655): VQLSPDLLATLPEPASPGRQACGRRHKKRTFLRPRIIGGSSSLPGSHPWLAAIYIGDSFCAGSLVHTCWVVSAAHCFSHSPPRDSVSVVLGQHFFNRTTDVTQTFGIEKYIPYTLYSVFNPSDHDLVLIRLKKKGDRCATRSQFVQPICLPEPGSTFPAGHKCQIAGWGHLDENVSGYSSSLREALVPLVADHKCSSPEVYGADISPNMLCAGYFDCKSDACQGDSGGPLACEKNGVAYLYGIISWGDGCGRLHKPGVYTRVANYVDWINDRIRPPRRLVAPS
# matriptase = target: T2, matriptase (Homo sapiens, UniProt Q9Y5Y6); test: HyCoSuL P4-P2 substrate specificity screening, matriptase; details: for P2 Position Substrate Activity for matriptase (percent substrate cleavage/proteolysis): residue fixed at P2 position; for P3 Position Various Amino Acids Substrate Activity, matriptase (percent substrate cleavage/proteolysis): residue fixed at P3 position of substrate library; for P4 Position Various Amino Acids Substrate Activity, matriptase (percent substrate proteolysis/cleavage): residue fixed at P4 position of substrate library; for P3 Position Substrate Activity for matriptase (percent substrate cleavage/proteolysis): residue fixed at P3 position
# T2 sequence (Q9Y5Y6 1-855): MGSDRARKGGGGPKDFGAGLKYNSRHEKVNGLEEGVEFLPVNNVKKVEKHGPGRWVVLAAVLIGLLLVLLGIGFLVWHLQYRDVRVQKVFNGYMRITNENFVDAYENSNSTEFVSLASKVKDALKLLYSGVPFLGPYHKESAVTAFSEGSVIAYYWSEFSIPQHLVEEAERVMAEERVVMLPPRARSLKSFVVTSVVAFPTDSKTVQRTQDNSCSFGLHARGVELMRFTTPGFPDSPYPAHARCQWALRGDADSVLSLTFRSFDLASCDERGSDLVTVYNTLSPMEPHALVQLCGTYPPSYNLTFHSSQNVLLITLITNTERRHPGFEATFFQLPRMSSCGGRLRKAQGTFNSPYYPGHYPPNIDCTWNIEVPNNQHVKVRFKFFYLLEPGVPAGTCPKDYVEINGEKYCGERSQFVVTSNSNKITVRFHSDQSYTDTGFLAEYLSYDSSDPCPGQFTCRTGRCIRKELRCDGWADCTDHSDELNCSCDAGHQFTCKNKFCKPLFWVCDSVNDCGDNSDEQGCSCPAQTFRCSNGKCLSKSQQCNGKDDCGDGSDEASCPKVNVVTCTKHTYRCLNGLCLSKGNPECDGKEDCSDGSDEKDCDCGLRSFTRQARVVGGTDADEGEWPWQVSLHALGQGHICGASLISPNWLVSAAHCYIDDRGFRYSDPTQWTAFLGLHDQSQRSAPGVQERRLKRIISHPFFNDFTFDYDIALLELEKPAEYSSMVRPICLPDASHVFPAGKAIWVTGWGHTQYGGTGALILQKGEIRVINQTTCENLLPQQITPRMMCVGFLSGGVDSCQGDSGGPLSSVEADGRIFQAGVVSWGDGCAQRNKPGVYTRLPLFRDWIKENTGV
# hepsin = target: T3, hepsin (Homo sapiens, UniProt P05981); test: HyCoSuL P4-P2 substrate specificity screening, hepsin; details: for P2 Position Substrate Activity for hepsin (percent substrate cleavage/proteolysis): residue fixed at P2 position; for P3 Position Various Amino Acids Substrate Activity, hepsin (percent substrate cleavage/proteolysis): residue fixed at P3 position of substrate library; for P4 Position Various Amino Acids Substrate Activity, hepsin (percent substrate proteolysis/cleavage): residue fixed at P4 position of substrate library; for P3 Position Substrate Activity for hepsin (percent substrate cleavage/proteolysis): residue fixed at P3 position
# T3 construct: purchased R&D Systems 4776-SE-010
# [1] = best recognized amino acid set to 100%
# [2] = residue fixed at P4 position of substrate library
# [3] = P1-Arg HyCoSuL, 100 μM, best recognized amino acid set to 100%
# [4] = residue fixed at P4 position, P1-Arg HyCoSuL, 100 μM, best recognized amino acid set to 100%
# T3 sequence (P05981 163-417 limits assumed): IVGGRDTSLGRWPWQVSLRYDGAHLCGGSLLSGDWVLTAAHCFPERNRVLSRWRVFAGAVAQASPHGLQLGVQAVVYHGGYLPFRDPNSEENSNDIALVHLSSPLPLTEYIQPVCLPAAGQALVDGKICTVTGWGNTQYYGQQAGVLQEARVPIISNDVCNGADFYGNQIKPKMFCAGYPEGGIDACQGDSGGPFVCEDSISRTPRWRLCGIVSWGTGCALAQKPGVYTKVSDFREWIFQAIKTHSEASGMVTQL
# T3 sequence (P05981 1-162 partner limits assumed): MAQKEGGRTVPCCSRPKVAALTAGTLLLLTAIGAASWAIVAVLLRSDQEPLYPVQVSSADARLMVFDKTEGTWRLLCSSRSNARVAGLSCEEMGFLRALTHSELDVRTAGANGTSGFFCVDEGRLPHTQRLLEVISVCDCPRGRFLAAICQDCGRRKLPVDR
# Chain of TMPRSS2 (O15393 whole entry): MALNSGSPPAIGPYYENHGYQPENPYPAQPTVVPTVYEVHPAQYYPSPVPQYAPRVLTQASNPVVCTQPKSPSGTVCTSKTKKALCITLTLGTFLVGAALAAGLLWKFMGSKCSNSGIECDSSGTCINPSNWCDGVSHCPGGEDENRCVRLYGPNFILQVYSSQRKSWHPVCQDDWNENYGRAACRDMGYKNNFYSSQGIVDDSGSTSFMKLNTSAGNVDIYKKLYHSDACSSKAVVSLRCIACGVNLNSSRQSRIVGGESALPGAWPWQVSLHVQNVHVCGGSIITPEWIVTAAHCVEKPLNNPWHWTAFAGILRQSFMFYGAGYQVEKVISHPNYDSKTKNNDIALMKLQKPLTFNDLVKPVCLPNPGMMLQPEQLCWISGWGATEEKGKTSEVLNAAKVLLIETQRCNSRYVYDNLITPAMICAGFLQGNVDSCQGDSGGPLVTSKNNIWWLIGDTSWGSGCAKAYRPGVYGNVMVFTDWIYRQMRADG
Molecule,P2 Position Substrate Activity for TMPRSS2 (percent substrate cleavage/proteolysis) (TMPRSS2; [1]) [%],"P3 Position Various Amino Acids Substrate Activity, TMPRSS2 (percent substrate cleavage/proteolysis) (TMPRSS2) [%]","P4 Position Various Amino Acids Substrate Activity, TMPRSS2 (percent substrate proteolysis/cleavage) (TMPRSS2; [2]) [%]",P2 Position Substrate Activity for HGFA (percent substrate cleavage/proteolysis) (HGFA; [3]) [%],"P3 Position Various Amino Acids Substrate Activity, HGFA (percent substrate cleavage/proteolysis) (HGFA) [%]","P4 Position Various Amino Acids Substrate Activity, HGFA (percent substrate proteolysis/cleavage) (HGFA) [%]",P2 Position Substrate Activity for matriptase (percent substrate cleavage/proteolysis) (matriptase; [3]) [%],"P3 Position Various Amino Acids Substrate Activity, matriptase (percent substrate cleavage/proteolysis) (matriptase) [%]","P4 Position Various Amino Acids Substrate Activity, matriptase (percent substrate proteolysis/cleavage) (matriptase) [%]",P2 Position Substrate Activity for hepsin (percent substrate cleavage/proteolysis) (hepsin; [3]) [%],"P3 Position Various Amino Acids Substrate Activity, hepsin (percent substrate cleavage/proteolysis) (hepsin) [%]","P4 Position Various Amino Acids Substrate Activity, hepsin (percent substrate proteolysis/cleavage) (hepsin) [%]",P3 Position Substrate Activity for TMPRSS2 (percent substrate cleavage/proteolysis) (TMPRSS2; [1]) [%],"P4 Position Substrate Activity for TMPRSS2 (percent substrate cleavage/proteolysis) (TMPRSS2; residue fixed at P4 position of substrate library, best recognized amino acid set to 100%) [%]",P3 Position Substrate Activity for HGFA (percent substrate cleavage/proteolysis) (HGFA; [3]) [%],P4 Position Substrate Activity for HGFA (percent substrate cleavage/proteolysis) (HGFA; [4]) [%],P3 Position Substrate Activity for matriptase (percent substrate cleavage/proteolysis) (matriptase; [3]),P4 Position Substrate Activity for matriptase (percent substrate cleavage/proteolysis) (matriptase; [4]) [%],P3 Position Substrate Activity for hepsin (percent substrate cleavage/proteolysis) (hepsin; [3]) [%],P4 Position Substrate Activity for hepsin (percent substrate cleavage/proteolysis) (hepsin; [4]) [%]
L-Cit,0.00,32.80,33.20,6.32,13.41,6.44,1,21,18,32.27,29.53,36.68,–,–,–,–,–,–,–,–
D-Ala,0.00,0.00,27.00,0.00,9.84,7.11,0,2,6,0.00,48.09,18.44,–,–,–,–,–,–,–,–
L-Pro,16.87,0.00,40.11,2.21,2.04,10.30,22,2,40,13.10,2.09,56.00,–,–,–,–,–,–,–,–
L-Lys,3.79,–,–,1.04,–,–,6,81,75,46.70,–,–,27.86,14.11,44.63,18.29,76.43% and 80.67%,75.49,80.71,75.43
L-Trp,33.05,22.96,24.62,4.04,17.50,8.78,32,11,9,6.00,0.00,6.82,–,–,–,–,–,–,–,–
L-Met(O),0.00,–,24.40,1.68,–,6.64,1,52,10,11.40,–,22.86,57.41,–,16.63,–,51.68%,–,68.16,–
L-Ile,7.29,13.26,63.74,4.94,9.06,14.09,3,13,32,45.68,11.37,47.02,–,–,–,–,–,–,–,–
NC1(C(=O)O)CCCC1 [AC5C],0.00,0.00,17.02,–,–,–,–,–,–,–,–,–,–,–,–,–,–,–,–,–
L-Met,8.64,45.55,38.95,–,–,–,5,41,–,–,–,–,–,–,–,–,–,–,–,–
